Data set [1] relates to 4T1 mouse mammary carcinoma. In words: In vivo antitumor efficacy, tumor allograft. On the set-up: species or system female BALB/c mice. The note with it: for median day for 4T1 tumor in attaining two-doubling growth (RTV = 4): control approximately 9 days; for terminal percent test/control (% T/C): end of experiment (day 14). On the procedure:
All animal experiments were conducted in accordance with protocols reviewed and approved by Dr. Haji Azizuddin Bin Haji Kamaruddin, Laboratory Animal Centre (LAC) Animal Care and Use Committee of Faculty of Medicine, University of Malaya (reference number FAR/14/07/2010/LSH). Female BALB/c mice aged between 6–8 weeks with a minimum weight of 17 g were maintained in a controlled environment of 12 h light-dark cycles with free access to food (standard pellet diet purchased from Altromin International, Lage, Germany) and purified water. Female mice were used because the hormonal environment essential for development of implanted 4TI mouse mammary carcinoma would be present.
(§1) Tumor allografts were initiated by subcutaneous injection of 5×10^5 4T1 mouse mammary carcinoma in 0.1 ml RPMI 1640 media into the inguinal mammary fat-pads of mice. Tumor growth was monitored and treatments were initiated when tumors reached volume of approximately 200 mm^3. To assess the tumor growth inhibition, 4T1 tumor bearing mice were randomized into groups with at least eight animals per group. Compound 5 was prepared at 0.3 mg/ml in normal saline and treatment was administered intravenously at 5 mg/kg on staging day or 3 mg/kg every other day for six treatments (q2dx6). For control group, normal saline was given. The animal weights and tumor volume were measured three times weekly for 14 d. The tumor volume was calculated using the equation: (length×width^2)/2 and relative tumor volume (RTV) was calculated for every tumor volume at any given time (VT) against the tumor volume at staging day (V0) using the equation: VT/V0. The RTV – time profile for each group was plotted and tumor growth delay in attaining a specified number of doublings compared to control was determined, [19]. Results were expressed as median ±95% confidence interval (n = 8).

Data set [2] relates to panel of solid human tumor cell lines (MCF-7, HCT-116, HSC-2, HK-1). In words: MTT cell viability assay, panel of cancer cell lines. Type of data set: cell-based. The note with it: mean over MCF-7, HCT-116, HSC-2, HK-1. On the procedure:
MCF-7 breast carcinoma and HCT-116 colon carcinoma cell lines were obtained from American Tissue Culture Collection (Virginia, USA) and maintained in RPMI 1640 medium supplemented with 10% FBS. HSC-2 oral cavity human squamous carcinoma cells were obtained from Health Science Research Resources Bank (Japan). HK-1, a previously characterized nasopharyngeal squamous carcinoma cells is a gift by Prof. Wong Y.C. from the University of Hong Kong. Both cell lines were grown in MEM medium supplemented with 10% FBS. For cell viability assay, cells at 4000 cells/well in 80 µl of medium were inoculated in 96-well plates and were allowed to adhere overnight. Cells were then treated with each compound at concentrations ranging from 0.001–10 µM giving the final volume of 100 µl in each well. At the end of incubation period, 15 µl of 5.0 mg/ml MTT in phosphate buffered saline (PBS) was added and incubated for 4 h. Medium and excessive MTT were aspirated and the resulting formazan was solubilized with 100 µl of dimethyl sulfoxide. Absorbance was read at 570 nm with SpectraMax M4 microplate spectrophotometer (Molecular Devices, CA).
The in vitro antitumor activity of rosamines was assessed using a 48 h endpoint cell viability methylthiazolyldiphenyl-tetrazolium bromide (MTT) assay against a panel of solid human tumor cell lines including breast carcinoma (MCF-7), colon carcinoma (HCT-116), oral squamous cell carcinoma (HSC-2) and nasopharyngeal carcinoma (HK-1). […] Within the halide series, cytotoxicities increase in the following order 4>3>[…] (Cl>Br>I), although not statistically significant (P>0.05).
(Tetrazolium assays rely on reduction of a dye to a coloured formazan, in cell work by metabolically active cells.)

A further data set has as its target Complex II (Mus musculus, UniProt Q8K2B3+Q9CQA3+Q9CXV1+Q9CZB0). In words: Immunocapture ELISA microplate enzyme activity assay. The format is biochemical. The settings on record: mouse liver mitochondria extract; 0.01–10 µM.
A short description of data set [3]: Solubility in aqueous media for treatment stock. The note with it: reconstitution of treatment stock at 10 mM. Type of data set: physicochemical. On the procedure:
Compounds 3, 4 and 6 were synthesized to test if meso-replacement with 4-bromobenzene 3, 4-chlorobenzene 4 or 2-furyl 6 groups would affect the anticancer activity. In addition, the 4-iodobenzene 7 or 2-thiofuran meso substituents 8 and unsymmetrical piperidine/[…] amine substituents were synthesized and investigated. Rosamines 1–4 and 7 were not appreciably water-soluble so they were reconstituted in DMSO at 10 mM as treatment stock.

Data set [4] has as its system panel of solid human tumor cell lines (MCF-7, HCT-116, HSC-2, HK-1). Set-up: method as in PMID 19387338. The note with it: anticancer activity in cellular assays; previous study; cited from earlier work.
The nature of data set [5]: Body weight and adverse effects in treated mice. Type of data set: in vivo. On the procedure:
as §1, with “Compound 5 was prepared at 0.3 mg/ml in normal saline and treatment was administered intravenously at 5 mg/kg on staging day or 3 mg/kg every other day for six treatments (q2dx6).” left out
Meanwhile, the terminal percent test/control (% T/C) values calculated at the end of experiment were 72% and 66% in mice receiving 5 mg/kg and 3 mg/kg (q2d×6) respectively. The antitumor efficacy of 5 is minimal as the % T/C attained after treatment had ended is not ≤40% activity, the minimal rating for a compound to be considered active. […]

The values that follow come from paper PMC3951181, “Rosamines Targeting the Cancer Oxidative Phosphorylation Pathway” (PLoS ONE, 2014).

Bounds are passed on as bounds.

Chain of Complex II (Q8K2B3 43-664): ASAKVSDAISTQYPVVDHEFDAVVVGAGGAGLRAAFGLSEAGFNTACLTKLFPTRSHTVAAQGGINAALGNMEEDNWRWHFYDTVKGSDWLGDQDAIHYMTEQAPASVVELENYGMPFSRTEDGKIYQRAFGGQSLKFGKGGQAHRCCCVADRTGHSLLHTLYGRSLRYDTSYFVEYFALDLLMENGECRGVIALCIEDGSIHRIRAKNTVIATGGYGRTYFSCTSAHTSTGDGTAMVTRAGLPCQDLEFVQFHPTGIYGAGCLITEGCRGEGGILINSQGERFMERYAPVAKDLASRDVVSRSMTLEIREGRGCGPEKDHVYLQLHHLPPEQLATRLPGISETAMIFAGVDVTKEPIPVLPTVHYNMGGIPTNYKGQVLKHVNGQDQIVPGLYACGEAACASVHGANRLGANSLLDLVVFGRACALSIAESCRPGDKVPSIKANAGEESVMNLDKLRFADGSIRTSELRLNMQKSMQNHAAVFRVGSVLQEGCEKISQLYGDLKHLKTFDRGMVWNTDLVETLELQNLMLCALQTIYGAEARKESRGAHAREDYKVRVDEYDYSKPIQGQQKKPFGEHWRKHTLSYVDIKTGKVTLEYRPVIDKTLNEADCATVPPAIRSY
Chain of Complex II (Q9CQA3 31-282): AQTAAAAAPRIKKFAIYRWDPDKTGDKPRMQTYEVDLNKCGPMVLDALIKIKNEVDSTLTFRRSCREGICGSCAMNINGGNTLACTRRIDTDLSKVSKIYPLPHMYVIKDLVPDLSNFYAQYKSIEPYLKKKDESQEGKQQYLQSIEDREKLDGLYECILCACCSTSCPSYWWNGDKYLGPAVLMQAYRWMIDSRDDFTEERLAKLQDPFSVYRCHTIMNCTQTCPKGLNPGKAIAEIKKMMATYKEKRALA
Chain of Complex II (Q9CZB0 30-169): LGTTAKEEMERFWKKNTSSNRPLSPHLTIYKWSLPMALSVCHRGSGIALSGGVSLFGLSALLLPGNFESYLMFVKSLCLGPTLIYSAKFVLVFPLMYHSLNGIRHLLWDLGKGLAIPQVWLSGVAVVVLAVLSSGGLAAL
Chain of Complex II (Q9CXV1 57-159): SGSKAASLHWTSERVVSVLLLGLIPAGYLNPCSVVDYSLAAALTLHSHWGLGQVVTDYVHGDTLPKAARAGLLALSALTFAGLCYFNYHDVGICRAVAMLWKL

Turning to `c1csc(-c2c3ccc(=[N+]4CCCCC4)cc-3oc3cc(N4CCCCC4)ccc23)c1` [Rosamine 5], in data set [1] (3 mg/kg i.v. q2d×6), the “median day for 4T1 tumor in attaining two-doubling growth (RTV = 4)” value is approximately 13 days and the “terminal percent test/control (% T/C)” value worked out at 66%. For the same molecule, in data set [1] (5 mg/kg single bolus i.v.), the “two-doubling tumor growth delay (T-C)/C” value came to 22%, the “median day for 4T1 tumor in attaining two-doubling growth (RTV = 4)” value is approximately 11 days and the “terminal percent test/control (% T/C)” value was found to be 72%. The IC50 – broadly, the concentration at which inhibition is half-maximal – in data set [2] is 0.11 µM. Besides, on Complex II, half-maximal inhibition (IC50) was put at 9.6 ± 0.1 µM. The water solubility result in data set [3] is recorded as “readily solubilized in aqueous media”. Further, the “fold more active than phenyl substituted compound 1” value in data set [4] is 5 fold. In data set [5] (4T1 tumor bearing mice, 5 mg/kg or 3 mg/kg (q2d×6) i.v., 14 d), this molecule registered a body weight loss not above 15%. In addition, the adverse effects result in data set [5] (mice, 10 mg/kg dose) is “unacceptable adverse effects such as weight loss, diarrhea and sudden death”.
